Measurements taken from US9856279B2 (AGIOS PHARMACEUTICALS, INC, priority 2011, dated 2018).

What was measured:
IDH1 R132H = IDH1 R132H (Homo sapiens, UniProt O75874, R132H); assay: Assay for IDH1 R132H inhibitors (NADPH/aKG, resazurin detection); format: biochemical; conditions: enzyme assay of Example 12; read-out: IDH1R132H IC50
Method in brief: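 Read-out is resorufin fluorescence (Ex544/Em590) 5 min after adding a 30 μM resazurin detection mix. Before that, mutant enzyme (0.2 μg/ml in its mix) ran 50 min at room temperature with compound, 8 uM NADPH and 2 mM aKG (mix levels) in Tris pH 7.5 with NaCl, MgCl2, BSA.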

HT1080 cells = assay: Cellular assay for IDH1m inhibitors: inhibition of 2-HG production (LC-MS, 48 hours) in HT1080 cells; format: cell-based; conditions: Homo sapiens, HT-1080; inhibition of 2-HG production, HT1080 cells; read-out: HT1080 IC50
Method in brief: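 Cells were seeded at 5000/well in DMEM with 10% FBS, incubated overnight, then treated with compound (0.2% DMSO final) for 48 h at 37° C. Medium 2-HG was quantified by LC-MS. IC50 is the concentration reducing 2-HG by 50% versus DMSO control, and CellTiter-Glo viability was read at 72 h.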

U87MG cells = assay: Cellular assay for IDH1m inhibitors: inhibition of 2-HG production (LC-MS, 48 hours) in U87MG cells; format: cell-based; conditions: Homo sapiens, U-87 MG, inhibition of 2-HG production, U87R132H cells; read-out: U87R132H IC50
Method: Cells (e.g., HT1080 or U87MG) and are grown in T125 flasks in DMEM containing 10% FBS, 1× penicillin/streptomycin and 500 ug/mL G418. They are harvested by trypsin and seeded into 96 well white bottom plates at a density of 5000 cell/well in 100 ul/well in DMEM with 10% FBS. No cells are plates in columns 1 and 12. Cells are incubated overnight at 37° C. in 5% CO2. The next day compounds are made up at 2× concentration and 100 ul are added to each cell well. The final concentration of DMSO is 0.2% and the DMSO control wells are plated in row G. The plates are then placed in the incubator for 48 hours. At 48 hours, 100 μl of media is removed from each well and analyzed by LC-MS for 2-HG concentrations. The cell plate is placed back in the incubator for another 24 hours. At 72 hours post compound addition, 10 mL/plate of Promega Cell Titer Glo reagent is thawed and mixed. The cell plate is removed from the incubator and allowed to equilibrate to room temperature. Then 100 ul of reagent is added to each well of media. The cell plate is then placed on an orbital shaker for 10 minutes and then allowed to sit at room temperature for 20 minutes. The plate is then read for luminescence with an integration time of 500 ms.
The IC50 for inhibition of 2-HG production (concentration of test compound to reduce 2HG production by 50% compared to control) in these two cell lines for various compounds of formula I is set forth in Table 4 above.

Chain of IDH1 R132H (O75874 whole entry R132H): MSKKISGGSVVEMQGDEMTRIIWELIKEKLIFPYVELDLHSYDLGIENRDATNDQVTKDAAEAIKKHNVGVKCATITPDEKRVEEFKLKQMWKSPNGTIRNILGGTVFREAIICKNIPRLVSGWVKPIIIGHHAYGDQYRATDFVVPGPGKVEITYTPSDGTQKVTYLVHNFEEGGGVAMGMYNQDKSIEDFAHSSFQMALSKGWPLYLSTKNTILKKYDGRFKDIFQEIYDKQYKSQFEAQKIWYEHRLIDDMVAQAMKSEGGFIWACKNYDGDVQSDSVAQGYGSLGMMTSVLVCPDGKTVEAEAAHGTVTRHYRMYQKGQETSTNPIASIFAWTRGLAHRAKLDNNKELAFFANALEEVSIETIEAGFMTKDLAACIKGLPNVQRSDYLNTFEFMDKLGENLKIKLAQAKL

IC50 (IDH1 R132H)	IC50 (HT1080 cells)	IC50 (U87MG cells)	SMILES
500 to 1000 nM	1000 to 10000 nM	1000 to 10000 nM	COCCC(=O)N1CCN(c2nc(C3CC3)c(-c3ccsc3)c(C)c2C#N)C[C@H]1C [Compound 270, (R)-6-cyclopropyl-2-(4-(3-methoxypropanoyl)-3-methylpiperazin-1-yl)-4-methyl-5-(thiophen-3-yl)nicotinonitrile]
< 500 nM	< 500 nM	< 500 nM	C=CC(=O)N1CCC=C(c2c(C3CC3)nc(N3CCN(C(=O)CCO)[C@H](C4CC4)C3)c(C#N)c2C)C1 [Compound 755, (R)-5-(1-acryloyl-1,2,5,6-tetrahydropyridin-3-yl)-6-cyclopropyl-2-(3-cyclopropyl-4-(3-hydroxypropanoyl)piperazin-1-yl)-4-methylnicotinonitrile]
< 500 nM	1000 to 10000 nM	1000 to 10000 nM	COCCC(=O)N1CCN(c2nc(C3CC3)c(OC(c3ccccc3)C(C)C)cc2C#N)C[C@H]1C (stereo partly drawn) [Compound 302, 6-cyclopropyl-2-((R)-4-(3-methoxypropanoyl)-3-methylpiperazin-1-yl)-5-(2-methyl-1-phenylpropoxy)nicotinonitrile]
< 500 nM	< 500 nM	< 500 nM	C=Cc1cc(Oc2cc(C#N)c(N3CCN(C(=O)CCOC)[C@H](C)C3)nc2C2CC2)ccn1 [Compound 667]
< 500 nM	1000 to 10000 nM	500 to 1000 nM	COCCC(=O)N1CCN(c2nc(C3CC3)c(-c3cnc4[nH]ccc4c3)cc2C#N)C[C@H]1C [Compound 374, (R)-6-cyclopropyl-2-[4-(3-methoxy-propionyl)-3-methyl-piperazin-1-yl]-5-(1H-pyrrolo[2,3-b]pyridin-5-yl)-nicotinonitrile]
< 500 nM	1000 to 10000 nM	1000 to 10000 nM	COCCC(=O)N1CCN(c2nc(C3CC3)c(OCc3ccc(CO)cc3)cc2C#N)C[C@H]1C [Compound 301, (R)-6-cyclopropyl-5-(4-(hydroxymethyl)benzyloxy)-2-(4-(3-methoxypropanoyl)-3-methylpiperazin-1-yl)nicotinonitrile]
< 500 nM	< 500 nM	< 500 nM	C=Cc1ccnc(Nc2cc(C#N)c(N3CCN(C(=O)CCOC)[C@H](C4CC4)C3)nc2C2CC2)c1 [Compound 706, (R)-6-cyclopropyl-2-(3-cyclopropyl-4-(3-methoxypropanoyl)piperazin-1-yl)-5-((4-vinylpyridin-2-yl)amino)nicotinonitrile]
< 500 nM	< 500 nM	< 500 nM	C=Cc1cc(Nc2cc(C#N)c(N3CCN(C(=O)COC)[C@H](C(C)C)C3)nc2C2CC2)ccn1 [Compound 743, (R)-6-cyclopropyl-2-(3-isopropyl-4-(2-methoxyacetyl)piperazin-1-yl)-5-((2-vinylpyridin-4-yl)amino)nicotinonitrile]
< 500 nM	1000 to 10000 nM	500 to 1000 nM	N#Cc1cc(-c2cccc3ncoc23)c(C2CC2)nc1N1CCN(C(=O)C2CC2)[C@H](C2CC2)C1 [Compound 483, (R)-5-(benzo[d]oxazol-7-yl)-2-(4-(cyclopropanecarbonyl)-3-cyclopropylpiperazin-1-yl)-6-cyclopropylnicotinonitrile]
< 500 nM	< 500 nM	< 500 nM	C=Cc1ncc2c(-c3cc(C#N)c(N4CCN(C(=O)C5CC5)[C@H](C5CC5)C4)nc3C3CC3)cccc2n1 [Compound 636, (R)-2-(4-(cyclopropanecarbonyl)-3-cyclopropylpiperazin-1-yl)-6-cyclopropyl-5-(2-vinylquinazolin-5-yl)nicotinonitrile]
< 500 nM	< 500 nM	< 500 nM	C=Cc1cnnc(Nc2cc(C#N)c(N3CCN(C(=O)CCOC)[C@H](C4CC4)C3)nc2C2CC2)c1 [Compound 775, (R)-6-cyclopropyl-2-(3-cyclopropyl-4-(3-methoxypropanoyl)piperazin-1-yl)-5-((5-vinylpyridazin-3-yl)amino)nicotinonitrile]
< 500 nM	< 500 nM	< 500 nM	COCCC(=O)N1CCN(c2nc(C3CC3)c(-c3cccc4cccnc34)cc2C#N)C[C@H]1C [Compound 342, (R)-6-cyclopropyl-2-(4-(3-methoxypropanoyl)-3-methylpiperazin-1-yl)-5-(quinolin-8-yl)nicotinonitrile]
< 500 nM	< 500 nM	500 to 1000 nM	COCCC(=O)N1CCN(c2nc(C3CC3)c(OCc3cccc(NC(=O)CBr)c3)cc2C#N)C[C@H]1C [Compound 382, (R)-2-bromo-N-(3-((5-cyano-2-cyclopropyl-6-(4-(3-methoxypropanoyl)-3-methylpiperazin-1-yl)pyridin-3-yloxy)methyl)phenyl)acetamide]
< 500 nM	< 500 nM	< 500 nM	C=Cc1cc(-c2cc(C#N)c(N3CCN(C(=O)CC4CCCO4)[C@H](C4CC4)C3)nc2C2CC2)ccn1 (stereo partly drawn) [Compound 801, 2-cyclopropyl-6-((3R)-3-cyclopropyl-4-(2-(tetrahydrofuran-2-yl)acetyl)piperazin-1-yl)-2′-vinyl-[3,4′-bipyridine]-5-carbonitrile]
< 500 nM	< 500 nM	< 500 nM	COCCC(=O)N1CCN(c2nc(C3CC3)c(-c3cccc4nc(O)ccc34)cc2C#N)C[C@H]1C [Compound 442, (R)-6-cyclopropyl-5-(2-hydroxyquinolin-5-yl)-2-(4-(3-methoxypropanoyl)-3-methylpiperazin-1-yl)nicotinonitrile]
–	< 500 nM	< 500 nM	C=Cc1cc(-c2cc(C#N)c(N3CCN(C(=O)C4CC4)[C@H](C4CC4)C3)nc2C2CC2)nc(N)n1 [Compound 700, (R)-5-(2-amino-6-vinylpyrimidin-4-yl)-2-(4-(cyclopropanecarbonyl)-3-cyclopropylpiperazin-1-yl)-6-cyclopropylnicotinonitrile]
< 500 nM	–	1000 to 10000 nM	N#Cc1cc(Cc2ccnc(Cl)c2)c(C2CC2)nc1N1CCN(C(=O)CCO)[C@H](C2CC2)C1 [Compound 708, (R)-5-((2-chloropyridin-4-yl)methyl)-6-cyclopropyl-2-(3-cyclopropyl-4-(3-hydroxypropanoyl)piperazin-1-yl)nicotinonitrile]
< 500 nM	–	< 500 nM	C=Cc1ccnc(Nc2cc(C#N)c(N3CCN(C(=O)CCO)[C@H](C(C)C)C3)nc2C2CC2)c1 [Compound 757, (R)-6-cyclopropyl-2-(4-(3-hydroxypropanoyl)-3-isopropylpiperazin-1-yl)-5-((4-vinylpyridin-2-yl)amino)nicotinonitrile]
< 500 nM	–	< 500 nM	C=Cc1ncc2c(-c3cc(C#N)c(N4CCN(C(=O)CCO)[C@H](C5CC5)C4)nc3C3CC3)cccc2n1 [Compound 651, (R)-6-cyclopropyl-2-(3-cyclopropyl-4-(3-hydroxypropanoyl)piperazin-1-yl)-5-(2-vinylquinazolin-5-yl)nicotinonitrile]
< 500 nM	–	< 500 nM	CCO[C@H]1C[C@@H]1C(=O)N1CCN(c2nc(C3CC3)c(-c3cccc4cnccc34)cc2C#N)C[C@H]1C1CC1 [Compound 518, 6-cyclopropyl-2-((R)-3-cyclopropyl-4-((1S,2S)-2-ethoxycyclopropanecarbonyl)piperazin-1-yl)-5-(isoquinolin-5-yl)nicotinonitrile]
< 500 nM	–	< 500 nM	C=Cc1cc(-c2cc(C#N)c(N3CCN(C(=O)COC)[C@H](C4CC4)C3)nc2C2CC2)nc(N)n1 [Compound 759, (R)-5-(2-amino-6-vinylpyrimidin-4-yl)-6-cyclopropyl-2-(3-cyclopropyl-4-(2-methoxyacetyl)piperazin-1-yl)nicotinonitrile]
–	< 500 nM	< 500 nM	N#Cc1cc(Nc2cc(C#N)c(N3CCN(C(=O)C[C@H]4CCO4)[C@H](C4CC4)C3)nc2C2CC2)ccn1 [Compound 783, 4-(5-cyano-2-cyclopropyl-6-((R)-3-cyclopropyl-4-(2-((R)-oxetan-2-yl)acetyl)piperazin-1-yl)pyridin-3-ylamino)picolinonitrile]
< 500 nM	–	< 500 nM	C=Cc1ncc2c(-c3cc(C#N)c(N4CCN(C(=O)CCO)[C@H](C(C)C)C4)nc3C3CC3)cccc2n1 [Compound 650, (R)-6-cyclopropyl-2-(4-(3-hydroxypropanoyl)-3-isopropylpiperazin-1-yl)-5-(2-vinylquinazolin-5-yl)nicotinonitrile]
